Results: patent publication US7118895B2, “Process for producing aglycon by using diglycosidase and flavor-improved food containing the aglycon and converting agent to be used in the process” (Amano Enzyme Inc., priority 2000, dated 2006)

Columns and labels:
[1] = test system: β-Glucosidase derived from A. niger; test: Reactivity toward various isoflavone glycosides (HPLC); assay type: biochemical, Aspergillus niger; set-up: glucoside / aglycon: unit not given here; conditions: 55 °C, pH 4.0
Experimental: Diglycosidase was diluted with an acetate buffer of pH 4.0 to prepare a 0.75 AU/mL enzyme solution. As references, a similar operation was conducted using β-glucosidase (manufactured by Fluka) derived from Aspergillus niger, β-glucosidase (manufactured by Sigma) derived from almond, β-xylosidase derived from pectinase G (manufactured by Amano Enzyme Inc.). Each of purified products of isoflavone glycosides (glycitin, acetylglycitin, malonylglycitin, daidzin, acetyldaidzin, malonyldaidzin, genistin, acetylgenistin, malonylgenistin, all manufactured by Nacalai Tesque, Inc.) was dissolved in methanol to prepare each 2 mM substrate solution. The reaction was carried out by mixing 10 μL of a substrate solution, 200 μL of 20 mM acetate buffer (pH 4.0), and 40 μL of each purified enzyme solution at a total liquid volume of 250 μL. The reaction was carried out at 55° C. and isolation of an aglycon isoflavone from an isoflavone glycoside in the reaction mixture was detected by HLPC at 0, 1, 3, and 6 hours of the reaction.
To the reaction mixture was added 700 μL of ethanol, followed by stirring and ultrasonication. After centrifugation at 15,000 rpm and 4° C. for 10 minutes, the supernatant was filtered through a filter and then the filtrate was applied to HPLC.
The isoflavone glycoside and aglycon isoflavone contained in the filtrate was separated and detected by a high performance liquid chromatography (HPLC, Shimadzu CLASS LC-10 system) using TOSOH TSK gel ODS-80TM column (manufactured by Tosoh Corporation). […] The absorbance at 260 nm was detected by a UV detector (Shimadzu, SPD-10AV). Using purified products (manufactured by Nacalai Tesque, Inc.) of the above isoflavone glycosides and aglycon isoflavones, the isoflavone glycoside and aglycon isoflavone were quantitatively determined according to a calibration curve method. By the way, unless otherwise stated, the measuring conditions of HPLC herein mean those described in the example.

Crude diglycosidase = test: Examination of substrate concentration in the conversion into isoflavone aglycons by diglycosidase using soybean materials; assay type: biochemical, Penicillium multicolor IAM7153;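 also: percent of the isoflavone family total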
Summary of the method: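 Reaction at 55° C, shaken, pH 4.0 (20 mM acetate), using crude diglycosidase from a 1.88 AU/mL enzyme solution on soy flour, soymilk, defatted soybean or soy protein concentrate at 2, 5, 10, 20 or 30% (w/v). Isoflavone aglycons quantified by HPLC of ethanol extracts at 0, 1, 3, 6 h.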

## COc1cc2c(=O)c(-c3ccc(O)cc3)coc2cc1O[C@@H]1O[C@H](COC(=O)CC(=O)O)[C@@H](O)[C@H](O)[C@H]1O [malonylglycitin, 6″-O-malonylglycitin]
[1]; Reaction time 0 h
  aglycon: 0
  glucoside: 100
[1]; Reaction time 1 h
  aglycon: 1.2
  glucoside: 98.8
[1]; Reaction time 3 h
  aglycon: 4.4
  glucoside: 95.6
[1]; Reaction time 6 h
  aglycon: 9.1
  glucoside: 90.9
Crude diglycosidase; concentrated soybean protein, substrate concentration 2%, heat treatment of enzyme no, reaction time 0 h
  Decomposition efficiency: ratio of each glycoside/aglycon within its isoflavone family: 0.4%
Crude diglycosidase; concentrated soybean protein, substrate concentration 2%, heat treatment of enzyme no, reaction time 1 h
  Decomposition efficiency: ratio of each glycoside/aglycon within its isoflavone family: 0.4%
Crude diglycosidase; concentrated soybean protein, substrate concentration 2%, heat treatment of enzyme no, reaction time 3 h
  Decomposition efficiency: ratio of each glycoside/aglycon within its isoflavone family: 0.2%
Crude diglycosidase; concentrated soybean protein, substrate concentration 2%, heat treatment of enzyme no, reaction time 6 h
  Decomposition efficiency: ratio of each glycoside/aglycon within its isoflavone family: not detected
Crude diglycosidase; concentrated soybean protein, substrate concentration 2%, heat treatment of enzyme yes, reaction time 6 h
  Decomposition efficiency: ratio of each glycoside/aglycon within its isoflavone family: 0.4%
Crude diglycosidase; concentrated soybean protein, substrate concentration 5%, heat treatment of enzyme no, reaction time 0 h
  Decomposition efficiency: ratio of each glycoside/aglycon within its isoflavone family: 0.4%
Crude diglycosidase; concentrated soybean protein, substrate concentration 5%, heat treatment of enzyme no, reaction time 1 h
  Decomposition efficiency: ratio of each glycoside/aglycon within its isoflavone family: 0.5%
Crude diglycosidase; concentrated soybean protein, substrate concentration 5%, heat treatment of enzyme no, reaction time 3 h
  Decomposition efficiency: ratio of each glycoside/aglycon within its isoflavone family: 0.4%
Crude diglycosidase; concentrated soybean protein, substrate concentration 5%, heat treatment of enzyme no, reaction time 6 h
  Decomposition efficiency: ratio of each glycoside/aglycon within its isoflavone family: 0.2%
Crude diglycosidase; concentrated soybean protein, substrate concentration 5%, heat treatment of enzyme yes, reaction time 6 h
  Decomposition efficiency: ratio of each glycoside/aglycon within its isoflavone family: 0.4%
Crude diglycosidase; concentrated soybean protein, substrate concentration 10%, heat treatment of enzyme no, reaction time 0 h
  Decomposition efficiency: ratio of each glycoside/aglycon within its isoflavone family: 0.3%
Crude diglycosidase; concentrated soybean protein, substrate concentration 10%, heat treatment of enzyme no, reaction time 1 h
  Decomposition efficiency: ratio of each glycoside/aglycon within its isoflavone family: 0.4%
Crude diglycosidase; concentrated soybean protein, substrate concentration 10%, heat treatment of enzyme no, reaction time 3 h
  Decomposition efficiency: ratio of each glycoside/aglycon within its isoflavone family: 0.3%
Crude diglycosidase; concentrated soybean protein, substrate concentration 10%, heat treatment of enzyme no, reaction time 6 h
  Decomposition efficiency: ratio of each glycoside/aglycon within its isoflavone family: 0.3%
Crude diglycosidase; concentrated soybean protein, substrate concentration 10%, heat treatment of enzyme yes, reaction time 6 h
  Decomposition efficiency: ratio of each glycoside/aglycon within its isoflavone family: 0.3%
Crude diglycosidase; concentrated soybean protein, substrate concentration 20%, heat treatment of enzyme no, reaction time 0 h
  Decomposition efficiency: ratio of each glycoside/aglycon within its isoflavone family: 0.2%
Crude diglycosidase; concentrated soybean protein, substrate concentration 20%, heat treatment of enzyme no, reaction time 1 h
  Decomposition efficiency: ratio of each glycoside/aglycon within its isoflavone family: 0.3%
Crude diglycosidase; concentrated soybean protein, substrate concentration 20%, heat treatment of enzyme no, reaction time 3 h
  Decomposition efficiency: ratio of each glycoside/aglycon within its isoflavone family: 0.2%
Crude diglycosidase; concentrated soybean protein, substrate concentration 20%, heat treatment of enzyme no, reaction time 6 h
  Decomposition efficiency: ratio of each glycoside/aglycon within its isoflavone family: 0.3%
Crude diglycosidase; concentrated soybean protein, substrate concentration 20%, heat treatment of enzyme yes, reaction time 6 h
  Decomposition efficiency: ratio of each glycoside/aglycon within its isoflavone family: 0.4%
Crude diglycosidase; concentrated soybean protein, substrate concentration 30%, heat treatment of enzyme no, reaction time 0 h
  Decomposition efficiency: ratio of each glycoside/aglycon within its isoflavone family: 0.4%
Crude diglycosidase; concentrated soybean protein, substrate concentration 30%, heat treatment of enzyme no, reaction time 1 h
  Decomposition efficiency: ratio of each glycoside/aglycon within its isoflavone family: 0.6%
Crude diglycosidase; concentrated soybean protein, substrate concentration 30%, heat treatment of enzyme no, reaction time 3 h
  Decomposition efficiency: ratio of each glycoside/aglycon within its isoflavone family: 0.5%
Crude diglycosidase; concentrated soybean protein, substrate concentration 30%, heat treatment of enzyme no, reaction time 6 h
  Decomposition efficiency: ratio of each glycoside/aglycon within its isoflavone family: 0.3%
Crude diglycosidase; concentrated soybean protein, substrate concentration 30%, heat treatment of enzyme yes, reaction time 6 h
  Decomposition efficiency: ratio of each glycoside/aglycon within its isoflavone family: 0.4%
Crude diglycosidase; defatted soybean, substrate concentration 2%, heat treatment of enzyme no, reaction time 0 h
  Decomposition efficiency: ratio of each glycoside/aglycon within its isoflavone family: not detected
Crude diglycosidase; defatted soybean, substrate concentration 2%, heat treatment of enzyme no, reaction time 1 h
  Decomposition efficiency: ratio of each glycoside/aglycon within its isoflavone family: not detected
Crude diglycosidase; defatted soybean, substrate concentration 2%, heat treatment of enzyme no, reaction time 3 h
  Decomposition efficiency: ratio of each glycoside/aglycon within its isoflavone family: not detected
Crude diglycosidase; defatted soybean, substrate concentration 2%, heat treatment of enzyme no, reaction time 6 h
  Decomposition efficiency: ratio of each glycoside/aglycon within its isoflavone family: not detected
Crude diglycosidase; defatted soybean, substrate concentration 2%, heat treatment of enzyme yes, reaction time 6 h
  Decomposition efficiency: ratio of each glycoside/aglycon within its isoflavone family: not detected
Crude diglycosidase; defatted soybean, substrate concentration 5%, heat treatment of enzyme no, reaction time 0 h
  Decomposition efficiency: ratio of each glycoside/aglycon within its isoflavone family: 58.4%
Crude diglycosidase; defatted soybean, substrate concentration 5%, heat treatment of enzyme no, reaction time 1 h
  Decomposition efficiency: ratio of each glycoside/aglycon within its isoflavone family: 41.6%
Crude diglycosidase; defatted soybean, substrate concentration 5%, heat treatment of enzyme no, reaction time 3 h
  Decomposition efficiency: ratio of each glycoside/aglycon within its isoflavone family: 31.8%
Crude diglycosidase; defatted soybean, substrate concentration 5%, heat treatment of enzyme no, reaction time 6 h
  Decomposition efficiency: ratio of each glycoside/aglycon within its isoflavone family: 19.5%
Crude diglycosidase; defatted soybean, substrate concentration 5%, heat treatment of enzyme yes, reaction time 6 h
  Decomposition efficiency: ratio of each glycoside/aglycon within its isoflavone family: 58.5%
Crude diglycosidase; defatted soybean, substrate concentration 10%, heat treatment of enzyme no, reaction time 0 h
  Decomposition efficiency: ratio of each glycoside/aglycon within its isoflavone family: 53.0%
Crude diglycosidase; defatted soybean, substrate concentration 10%, heat treatment of enzyme no, reaction time 1 h
  Decomposition efficiency: ratio of each glycoside/aglycon within its isoflavone family: 54.7%
Crude diglycosidase; defatted soybean, substrate concentration 10%, heat treatment of enzyme no, reaction time 3 h
  Decomposition efficiency: ratio of each glycoside/aglycon within its isoflavone family: 36.6%
Crude diglycosidase; defatted soybean, substrate concentration 10%, heat treatment of enzyme no, reaction time 6 h
  Decomposition efficiency: ratio of each glycoside/aglycon within its isoflavone family: 27.9%
Crude diglycosidase; defatted soybean, substrate concentration 10%, heat treatment of enzyme yes, reaction time 6 h
  Decomposition efficiency: ratio of each glycoside/aglycon within its isoflavone family: 57.6%
Crude diglycosidase; roasted soy flour, substrate concentration 2%, heat treatment of enzyme no, reaction time 0 h
  Decomposition efficiency: ratio of each glycoside/aglycon within its isoflavone family: not detected
